Measured values as given in patent publication US6689750B1, “Bactericide compositions prepared and obtained from microccus varians” (priority 1995, dated 2004).

Assays:
[1] = system: strain of Lactococcus lactis which produces lacticin 481; experiment: Inhibition spectrum test on the lacticin 481 producer; assay type: cell-based
Text: When the strain of Lactococcus lactis which produces lacticin 481 is inoculated in the presence of a […] extract, as previously described in the inhibition spectrum test, the growth of the said strain is seen to be inhibited. The strain of Lactococcus lactis which produces lacticin 481 is immune to its own bacteriocin, lacticin 481, but is not immune to the […] produced by either of the two Micrococcus varians strains according to the present invention.

Gram-negative bacteria = experiment: Inhibition spectrum, agar well test, summary; assay type: cell-based; details: Table V
Text: The inhibition spectrum of the supernatant is thus determined.

[2] = system: Lactobacillus helveticus (N 2); experiment: Inactivation by enzymes, agar well test; assay type: physicochemical; details: two indicator strains

Substance	growth of the lacticin 481 producing strain [1]	inhibitory effect on the growth of Gram-negative bacteria (Gram-negative bacteria)	influence of catalase on bactericidal activity [2]
lacticin 481	immune		
variacin: bacteriocin from Micrococcus varians strains CNCM I-1586 and CNCM I-1587, amino acid sequence SEQ ID NO:1 (GSGVIPTISHECHMNSFQFVFTCCS)		does not exert any inhibitory effect	not found to exert any influence
